{"source": "patent US20150105252A1", "about": "“SUBSTITUTED PYRAZOLES AS HERBICIDES” (E I DU PONT DE NEMOURS AND COMPANY, priority 2013, published 2015)", "key": {"waterhemp": {"tested_on": "waterhemp", "experiment": "Test C postemergence", "format": "in vivo, Amaranthus rudis", "conditions": "postemergence, 250 g ai/ha; scale 0 to 100 (0 no effect, 100 complete control)", "in_short": "(§1)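 Visual control ratings on a 0–100 scale (100 = complete control) made against untreated controls after 13 to 15 days in greenhouse. Compounds applied in surfactant-containing solvent mixture, either preemergence to loam/sand-sown seeds or postemergence to 1- to 4-leaf plants (2–18 cm) in peat medium.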"}, "galium": {"tested_on": "galium", "experiment": "Test C postemergence", "format": "in vivo, Galium aparine", "in_short": "as §1"}, "wheat": {"tested_on": "wheat", "experiment": "Test C postemergence", "format": "in vivo, Triticum aestivum", "conditions": "postemergence", "in_short": "as §1"}, "oilseed rape": {"tested_on": "oilseed rape", "experiment": "Test C postemergence", "format": "in vivo, Brassica napus", "conditions": "postemergence", "in_short": "as §1"}, "lambsquarters [1]": {"tested_on": "lambsquarters", "experiment": "Test C postemergence", "format": "in vivo, Chenopodium album", "in_short": "as §1"}, "morningglory": {"tested_on": "morningglory", "experiment": "Test C postemergence", "format": "in vivo, Ipomoea coccinea", "in_short": "as §1"}, "pigweed": {"tested_on": "pigweed", "experiment": "Test C postemergence", "format": "in vivo, Amaranthus retroflexus", "conditions": "postemergence", "in_short": "as §1"}, "velvetleaf": {"tested_on": "velvetleaf", "experiment": "Test C postemergence", "format": "in vivo, Abutilon theophrasti", "conditions": "postemergence", "in_short": "as §1"}, "ryegrass, Italian": {"tested_on": "ryegrass, Italian", "experiment": "Test C postemergence", "format": "in vivo, Lolium multiflorum", "conditions": "postemergence", "in_short": "as §1"}, "lambsquarters [2]": {"tested_on": "lambsquarters", "experiment": "Test C preemergence", "format": "in vivo, Chenopodium album", "conditions": "preemergence", "in_short": "as §1"}, "chickweed": {"tested_on": "chickweed", "experiment": "Test C postemergence", "format": "in vivo, Stellaria media", "in_short": "as §1"}, "foxtail, giant": {"tested_on": "foxtail, giant", "experiment": "Test C postemergence", "format": "in vivo, Setaria faberii", "in_short": "as §1"}, "nutsedge, yellow": {"tested_on": "nutsedge, yellow", "experiment": "Test C postemergence", "format": "in vivo, Cyperus esculentus", "in_short": "as §1"}, "corn": {"tested_on": "corn", "experiment": "Test C postemergence", "format": "in vivo, Zea mays", "in_short": "as §1"}, "soybean": {"tested_on": "soybean", "experiment": "Test C postemergence", "format": "in vivo, Glycine max", "conditions": "postemergence", "in_short": "as §1"}, "johnsongrass": {"tested_on": "johnsongrass", "experiment": "Test C postemergence", "format": "in vivo, Sorghum halepense", "in_short": "as §1"}, "blackgrass": {"tested_on": "blackgrass", "experiment": "Test C postemergence", "format": "in vivo, Alopecurus myosuroides", "in_short": "as §1"}, "kochia": {"tested_on": "kochia", "experiment": "Test C postemergence", "format": "in vivo, Kochia scoparia", "in_short": "as §1"}, "[3]": {"conditions": "Postemergence, 31 g ai/ha, visually evaluated after 13 to 15 days"}, "[4]": {"conditions": "postemergence, 62 g ai/ha, scale 0 to 100"}, "[5]": {"conditions": "postemergence, 250 g ai/ha, scale 0 to 100 (0 no effect, 100 complete control)"}, "[6]": {"conditions": "postemergence, 125 g ai/ha, scale 0 to 100, 0 no effect, 100 complete control"}, "[7]": {"conditions": "250 g ai/ha, scale 0 to 100 (0 no effect, 100 complete control)"}, "[8]": {"conditions": "125 g ai/ha, scale 0 to 100, 0 no effect, 100 complete control"}}, "data": [{"smiles": "CCOc1cc(C(=O)NC(C)C)nn1Cc1ccnc(C(F)(F)F)c1", "note": "[Compound 188]", "values": [{"measurement": "Plant response rating, Waterhemp", "setting": "waterhemp", "result": 95}, {"measurement": "Plant response rating (scale of 0 to 100 where 0 is no effect and 100 is complete control), Galium", "setting": "galium; [3]", "result": 80}, {"measurement": "Galium plant response rating", "setting": "galium; [4]", "result": 80}, {"measurement": "Plant response rating, Galium", "setting": "galium; [5]", "result": 90}, {"measurement": "Plant response rating, Galium", "setting": "galium; [6]", "result": 90}, {"measurement": "Plant response rating, Wheat", "setting": "wheat; [7]", "result": 40}, {"measurement": "Wheat plant response rating", "setting": "wheat; scale 0 to 100", "result": 15}, {"measurement": "Oilseed Rape plant response rating", "setting": "oilseed rape; 62 g ai/ha, scale 0 to 100", "result": 60}, {"measurement": "Plant response rating, Oilseed Rape", "setting": "oilseed rape; [7]", "result": 90}, {"measurement": "Plant response rating, Oilseed Rape", "setting": "oilseed rape; [8]", "result": 70}, {"measurement": "Plant response rating (scale of 0 to 100 where 0 is no effect and 100 is complete control), Lambsquarters", "setting": "lambsquarters [1]; [3]", "result": 60}, {"measurement": "Lambsquarters plant response rating", "setting": "lambsquarters [1]; [4]", "result": 75}, {"measurement": "Plant response rating, Lambsquarters", "setting": "lambsquarters [1]; [5]", "result": 95}, {"measurement": "Plant response rating, Lambsquarters", "setting": "lambsquarters [1]; [6]", "result": 90}, {"measurement": "Plant response rating (scale of 0 to 100 where 0 is no effect and 100 is complete control), Morningglory", "setting": "morningglory; [3]", "result": 85}, {"measurement": "Morningglory plant response rating", "setting": "morningglory; [4]", "result": 90}, {"measurement": "Plant response rating, Morningglory", "setting": "morningglory; [5]", "result": 98}, {"measurement": "Plant response rating, Morningglory", "setting": "morningglory; [6]", "result": 98}, {"measurement": "Pigweed plant response rating", "setting": "pigweed; 62 g ai/ha, scale 0 to 100", "result": 75}, {"measurement": "Plant response rating, Pigweed", "setting": "pigweed; [7]", "result": 85}, {"measurement": "Plant response rating, Pigweed", "setting": "pigweed; [8]", "result": 80}, {"measurement": "Plant response rating, Velvetleaf", "setting": "velvetleaf; [7]", "result": 80}, {"measurement": "Velvetleaf plant response rating", "setting": "velvetleaf; scale 0 to 100", "result": 60}, {"measurement": "Plant response rating, Ryegrass, Italian", "setting": "ryegrass, Italian; [7]", "result": 35}, {"measurement": "Plant response rating, Ryegrass, Italian", "setting": "ryegrass, Italian; [8]", "result": 20}, {"measurement": "Lambsquarters plant response rating", "setting": "lambsquarters [2]; 31 g ai/ha, visual rating, scale 0 to 100 (0 no effect, 100 complete control), 13 to 15 days", "result": 100}, {"measurement": "Lambsquarters plant response rating", "setting": "lambsquarters [2]; 62 g ai/ha, scale 0 to 100 (0 no effect, 100 complete control), 13 to 15 days", "result": 100}, {"measurement": "Plant response rating, Lambsquarters", "setting": "lambsquarters [2]; 125 g ai/ha, 13 to 15 days, scale 0 to 100, 0 = no effect, 100 = complete control", "result": 100}, {"measurement": "Lambsquarters plant response rating", "setting": "lambsquarters [2]; 250 g ai/ha, scale 0 to 100, 0 is no effect, 100 is complete control", "result": 100}, {"measurement": "Plant response rating (scale of 0 to 100 where 0 is no effect and 100 is complete control), Chickweed", "setting": "chickweed; [3]", "result": 70}, {"measurement": "Chickweed plant response rating", "setting": "chickweed; [4]", "result": 85}, {"measurement": "Plant response rating, Chickweed", "setting": "chickweed; [5]", "result": 98}, {"measurement": "Plant response rating, Chickweed", "setting": "chickweed; [6]", "result": 80}, {"measurement": "Plant response rating (scale of 0 to 100 where 0 is no effect and 100 is complete control), Foxtail, Giant", "setting": "foxtail, giant; [3]", "result": 5}, {"measurement": "Foxtail, Giant plant response rating", "setting": "foxtail, giant; [4]", "result": 40}, {"measurement": "Plant response rating, Foxtail, Giant", "setting": "foxtail, giant; [5]", "result": 90}, {"measurement": "Plant response rating, Foxtail, Giant", "setting": "foxtail, giant; [6]", "result": 60}, {"measurement": "Plant response rating (scale of 0 to 100 where 0 is no effect and 100 is complete control), Nutsedge, Yellow", "setting": "nutsedge, yellow; [3]", "result": 5}, {"measurement": "Nutsedge, Yellow plant response rating", "setting": "nutsedge, yellow; [4]", "result": 35}, {"measurement": "Plant response rating, Nutsedge, Yellow", "setting": "nutsedge, yellow; [5]", "result": 10}, {"measurement": "Plant response rating, Nutsedge, Yellow", "setting": "nutsedge, yellow; [6]", "result": 5}, {"measurement": "Plant response rating (scale of 0 to 100 where 0 is no effect and 100 is complete control), Corn", "setting": "corn; [3]", "result": 5}, {"measurement": "Corn plant response rating", "setting": "corn; [4]", "result": 55}, {"measurement": "Plant response rating, Corn", "setting": "corn; [5]", "result": 60}, {"measurement": "Plant response rating, Corn", "setting": "corn; [6]", "result": 20}, {"measurement": "Plant response rating, Soybean", "setting": "soybean; [7]", "result": 98}, {"measurement": "Soybean plant response rating", "setting": "soybean; [8]", "result": 95}, {"measurement": "Plant response rating (scale of 0 to 100 where 0 is no effect and 100 is complete control), Johnsongrass", "setting": "johnsongrass; [3]", "result": 0}, {"measurement": "Johnsongrass plant response rating", "setting": "johnsongrass; [4]", "result": 0}, {"measurement": "Plant response rating, Johnsongrass", "setting": "johnsongrass; [5]", "result": 65}, {"measurement": "Plant response rating, Johnsongrass", "setting": "johnsongrass; [6]", "result": 50}, {"measurement": "Plant response rating (scale of 0 to 100 where 0 is no effect and 100 is complete control), Blackgrass", "setting": "blackgrass; [3]", "result": 5}, {"measurement": "Blackgrass plant response rating", "setting": "blackgrass; [4]", "result": 5}, {"measurement": "Plant response rating, Blackgrass", "setting": "blackgrass; [5]", "result": 70}, {"measurement": "Plant response rating, Blackgrass", "setting": "blackgrass; [6]", "result": 40}, {"measurement": "Plant response rating (scale of 0 to 100 where 0 is no effect and 100 is complete control), Kochia", "setting": "kochia; [3]", "result": 90}, {"measurement": "Kochia plant response rating", "setting": "kochia; [4]", "result": 90}, {"measurement": "Plant response rating, Kochia", "setting": "kochia; [5]", "result": 90}, {"measurement": "Plant response rating, Kochia", "setting": "kochia; [6]", "result": 90}]}]}
